Measured values as given in ChEMBL document CHEMBL4507281, “Data for DCP probe BI-4394” (2021).

Assays:
Details in all cases: Compound concentration 10.0 uM
[1] = molecular target: D(1A) dopamine receptor (Homo sapiens) (UniProt P21728)
[2] = molecular target: Sodium-dependent dopamine transporter (Homo sapiens) (UniProt Q01959)
[3] = molecular target: Alpha-2A adrenergic receptor (Homo sapiens) (UniProt P08913)
[4] = molecular target: Beta-1 adrenergic receptor (Homo sapiens) (UniProt P08588)
[5] = molecular target: T1, Activin receptor type-1B (Homo sapiens) (UniProt P36896)
T1 sequence (whole entry): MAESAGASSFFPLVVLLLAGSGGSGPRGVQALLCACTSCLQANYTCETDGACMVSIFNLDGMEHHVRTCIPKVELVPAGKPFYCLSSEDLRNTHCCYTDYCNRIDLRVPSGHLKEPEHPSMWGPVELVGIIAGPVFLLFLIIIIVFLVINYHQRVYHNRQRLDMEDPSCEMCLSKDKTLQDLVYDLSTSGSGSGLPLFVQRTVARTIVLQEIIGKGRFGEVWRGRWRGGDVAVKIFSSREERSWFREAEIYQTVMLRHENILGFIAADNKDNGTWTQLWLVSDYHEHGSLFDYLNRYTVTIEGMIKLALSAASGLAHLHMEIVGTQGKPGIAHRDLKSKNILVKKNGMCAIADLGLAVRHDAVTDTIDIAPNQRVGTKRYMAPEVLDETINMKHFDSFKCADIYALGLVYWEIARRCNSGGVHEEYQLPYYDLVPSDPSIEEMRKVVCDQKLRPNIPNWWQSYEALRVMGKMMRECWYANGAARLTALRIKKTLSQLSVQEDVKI

[6] = molecular target: Casein kinase I isoform gamma-2 (Homo sapiens) (UniProt P78368)
[7] = molecular target: Casein kinase II subunit alpha (Homo sapiens) (UniProt P68400)
Casein kinase II subunit alpha (Homo sapiens), sequence (P68400 whole entry, looked up): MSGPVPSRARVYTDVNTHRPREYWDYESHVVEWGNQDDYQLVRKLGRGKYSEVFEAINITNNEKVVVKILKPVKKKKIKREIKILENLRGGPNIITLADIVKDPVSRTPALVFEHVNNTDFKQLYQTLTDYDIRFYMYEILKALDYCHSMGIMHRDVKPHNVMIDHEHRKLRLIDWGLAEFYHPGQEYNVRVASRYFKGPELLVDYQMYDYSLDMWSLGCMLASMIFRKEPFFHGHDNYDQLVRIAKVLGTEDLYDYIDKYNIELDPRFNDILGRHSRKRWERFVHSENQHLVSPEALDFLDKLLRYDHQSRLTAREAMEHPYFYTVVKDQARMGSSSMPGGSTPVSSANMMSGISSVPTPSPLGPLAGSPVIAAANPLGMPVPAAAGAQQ

[8] = molecular target: Dual specificity tyrosine-phosphorylation-regulated kinase 3 (Homo sapiens) (UniProt O43781)
[9] = molecular target: Receptor tyrosine-protein kinase erbB-2 (Homo sapiens) (UniProt P04626)
[10] = molecular target: T2, Interleukin-1 receptor-associated kinase 4 (Homo sapiens) (UniProt Q9NWZ3)
T2 sequence (whole entry): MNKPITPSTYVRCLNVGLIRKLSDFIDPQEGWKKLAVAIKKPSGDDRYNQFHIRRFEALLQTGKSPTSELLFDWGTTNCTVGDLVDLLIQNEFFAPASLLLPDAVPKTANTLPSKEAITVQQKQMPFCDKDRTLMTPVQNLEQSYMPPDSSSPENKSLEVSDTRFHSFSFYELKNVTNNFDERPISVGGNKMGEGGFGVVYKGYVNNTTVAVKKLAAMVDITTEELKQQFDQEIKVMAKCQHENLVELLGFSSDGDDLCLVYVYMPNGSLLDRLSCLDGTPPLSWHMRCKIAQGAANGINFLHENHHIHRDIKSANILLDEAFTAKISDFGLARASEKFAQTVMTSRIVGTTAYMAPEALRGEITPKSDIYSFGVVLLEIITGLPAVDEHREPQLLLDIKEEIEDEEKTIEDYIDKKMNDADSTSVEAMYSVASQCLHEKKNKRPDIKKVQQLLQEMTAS

[11] = molecular target: Tyrosine-protein kinase Lck (Homo sapiens) (UniProt P06239)
[12] = molecular target: MAP kinase-activated protein kinase 2 (Homo sapiens) (UniProt P49137)
MAP kinase-activated protein kinase 2 (Homo sapiens), sequence (P49137 whole entry, looked up): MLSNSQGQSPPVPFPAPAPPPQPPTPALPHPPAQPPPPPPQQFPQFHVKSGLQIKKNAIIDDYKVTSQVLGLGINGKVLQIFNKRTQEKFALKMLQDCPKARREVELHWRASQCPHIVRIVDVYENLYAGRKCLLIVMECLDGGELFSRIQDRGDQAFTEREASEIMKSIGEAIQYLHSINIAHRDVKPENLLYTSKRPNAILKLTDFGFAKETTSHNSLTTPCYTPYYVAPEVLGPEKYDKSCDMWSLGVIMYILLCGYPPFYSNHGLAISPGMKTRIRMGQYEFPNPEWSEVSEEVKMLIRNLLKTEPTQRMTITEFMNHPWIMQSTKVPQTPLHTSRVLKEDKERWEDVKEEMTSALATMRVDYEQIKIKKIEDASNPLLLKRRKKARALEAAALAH

[13] = molecular target: Hepatocyte growth factor receptor (Homo sapiens) (UniProt P08581)
Hepatocyte growth factor receptor (Homo sapiens), sequence (P08581 whole entry): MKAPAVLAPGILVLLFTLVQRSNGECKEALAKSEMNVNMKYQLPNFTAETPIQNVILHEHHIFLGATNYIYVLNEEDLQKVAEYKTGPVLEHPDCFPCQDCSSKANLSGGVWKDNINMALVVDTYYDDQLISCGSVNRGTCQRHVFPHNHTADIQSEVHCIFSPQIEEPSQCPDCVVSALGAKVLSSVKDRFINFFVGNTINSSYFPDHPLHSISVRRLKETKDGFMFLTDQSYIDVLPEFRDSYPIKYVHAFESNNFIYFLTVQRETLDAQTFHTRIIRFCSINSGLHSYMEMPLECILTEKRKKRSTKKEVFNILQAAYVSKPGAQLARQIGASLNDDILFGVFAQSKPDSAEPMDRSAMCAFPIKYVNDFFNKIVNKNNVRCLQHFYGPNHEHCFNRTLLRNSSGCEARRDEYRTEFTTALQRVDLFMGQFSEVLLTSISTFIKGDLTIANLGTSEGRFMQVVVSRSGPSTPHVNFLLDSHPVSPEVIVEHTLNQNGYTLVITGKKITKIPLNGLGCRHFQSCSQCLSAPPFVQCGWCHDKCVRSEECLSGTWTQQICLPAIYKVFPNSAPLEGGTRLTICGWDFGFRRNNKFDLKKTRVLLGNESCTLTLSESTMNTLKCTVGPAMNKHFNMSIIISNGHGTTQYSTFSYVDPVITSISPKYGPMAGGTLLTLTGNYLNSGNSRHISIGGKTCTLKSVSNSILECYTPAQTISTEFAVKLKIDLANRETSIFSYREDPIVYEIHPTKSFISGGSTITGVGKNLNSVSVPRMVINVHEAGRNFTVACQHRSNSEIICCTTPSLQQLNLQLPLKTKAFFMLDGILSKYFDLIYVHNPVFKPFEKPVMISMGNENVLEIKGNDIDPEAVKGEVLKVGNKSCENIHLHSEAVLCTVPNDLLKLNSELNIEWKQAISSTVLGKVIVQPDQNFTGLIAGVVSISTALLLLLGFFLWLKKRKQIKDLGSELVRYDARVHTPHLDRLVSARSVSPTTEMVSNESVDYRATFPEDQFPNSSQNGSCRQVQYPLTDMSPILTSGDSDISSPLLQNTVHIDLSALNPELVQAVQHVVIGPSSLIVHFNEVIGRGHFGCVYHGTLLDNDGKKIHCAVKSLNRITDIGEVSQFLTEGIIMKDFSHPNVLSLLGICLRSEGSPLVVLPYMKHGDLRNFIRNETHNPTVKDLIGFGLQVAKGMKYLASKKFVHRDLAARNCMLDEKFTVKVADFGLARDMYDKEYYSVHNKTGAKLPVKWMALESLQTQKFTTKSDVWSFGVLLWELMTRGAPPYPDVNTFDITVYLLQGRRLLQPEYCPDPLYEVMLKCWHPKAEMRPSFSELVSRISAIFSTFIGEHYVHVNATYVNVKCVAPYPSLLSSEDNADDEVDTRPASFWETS

[14] = molecular target: High affinity nerve growth factor receptor (Homo sapiens) (UniProt P04629)
High affinity nerve growth factor receptor (Homo sapiens), sequence (P04629 33-796 limits assumed): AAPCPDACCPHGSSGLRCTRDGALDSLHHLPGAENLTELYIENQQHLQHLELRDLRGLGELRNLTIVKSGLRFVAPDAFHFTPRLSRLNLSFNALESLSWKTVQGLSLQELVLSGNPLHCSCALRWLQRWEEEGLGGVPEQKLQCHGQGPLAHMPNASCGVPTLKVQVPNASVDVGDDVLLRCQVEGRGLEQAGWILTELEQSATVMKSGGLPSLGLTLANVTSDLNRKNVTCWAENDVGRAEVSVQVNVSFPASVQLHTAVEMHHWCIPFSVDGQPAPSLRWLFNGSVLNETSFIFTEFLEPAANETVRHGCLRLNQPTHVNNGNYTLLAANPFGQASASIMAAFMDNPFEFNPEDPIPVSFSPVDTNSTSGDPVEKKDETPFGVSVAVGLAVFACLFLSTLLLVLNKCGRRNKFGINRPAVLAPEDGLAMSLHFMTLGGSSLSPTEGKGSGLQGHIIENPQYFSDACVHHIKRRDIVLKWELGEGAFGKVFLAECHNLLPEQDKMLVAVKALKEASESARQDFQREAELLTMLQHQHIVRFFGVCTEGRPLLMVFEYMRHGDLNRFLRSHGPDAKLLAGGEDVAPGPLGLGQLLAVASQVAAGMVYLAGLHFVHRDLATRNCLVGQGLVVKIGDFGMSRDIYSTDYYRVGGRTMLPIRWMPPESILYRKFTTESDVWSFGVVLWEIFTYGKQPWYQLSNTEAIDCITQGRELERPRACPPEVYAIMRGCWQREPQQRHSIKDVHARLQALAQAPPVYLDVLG

[15] = molecular target: Serine/threonine-protein kinase PAK 4 (Homo sapiens) (UniProt O96013)
[16] = molecular target: Serine/threonine-protein kinase pim-1 (Homo sapiens) (UniProt P11309)
[17] = molecular target: Serine/threonine-protein kinase PLK1 (Homo sapiens) (UniProt P53350)
Serine/threonine-protein kinase PLK1 (Homo sapiens), sequence (P53350 whole entry): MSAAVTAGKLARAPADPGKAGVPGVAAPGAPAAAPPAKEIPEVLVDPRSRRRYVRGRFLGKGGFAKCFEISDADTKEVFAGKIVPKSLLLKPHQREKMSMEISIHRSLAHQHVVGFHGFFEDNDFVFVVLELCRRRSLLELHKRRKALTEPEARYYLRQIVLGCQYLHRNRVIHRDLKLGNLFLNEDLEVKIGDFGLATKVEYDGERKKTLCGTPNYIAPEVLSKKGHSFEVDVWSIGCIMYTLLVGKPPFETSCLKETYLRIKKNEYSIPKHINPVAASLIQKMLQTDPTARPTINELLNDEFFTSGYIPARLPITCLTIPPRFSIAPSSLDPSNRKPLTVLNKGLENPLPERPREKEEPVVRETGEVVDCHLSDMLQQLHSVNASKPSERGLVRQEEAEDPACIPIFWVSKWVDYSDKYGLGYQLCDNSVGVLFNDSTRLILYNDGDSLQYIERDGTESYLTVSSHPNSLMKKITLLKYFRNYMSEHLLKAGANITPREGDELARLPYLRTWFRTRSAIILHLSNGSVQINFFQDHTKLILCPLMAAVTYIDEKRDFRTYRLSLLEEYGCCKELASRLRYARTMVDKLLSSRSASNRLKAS

[18] = molecular target: cAMP-dependent protein kinase catalytic subunit alpha (Homo sapiens) (UniProt P17612)
[19] = molecular target: T3, Protein kinase C epsilon type (Homo sapiens) (UniProt Q02156)
T3 sequence (whole entry): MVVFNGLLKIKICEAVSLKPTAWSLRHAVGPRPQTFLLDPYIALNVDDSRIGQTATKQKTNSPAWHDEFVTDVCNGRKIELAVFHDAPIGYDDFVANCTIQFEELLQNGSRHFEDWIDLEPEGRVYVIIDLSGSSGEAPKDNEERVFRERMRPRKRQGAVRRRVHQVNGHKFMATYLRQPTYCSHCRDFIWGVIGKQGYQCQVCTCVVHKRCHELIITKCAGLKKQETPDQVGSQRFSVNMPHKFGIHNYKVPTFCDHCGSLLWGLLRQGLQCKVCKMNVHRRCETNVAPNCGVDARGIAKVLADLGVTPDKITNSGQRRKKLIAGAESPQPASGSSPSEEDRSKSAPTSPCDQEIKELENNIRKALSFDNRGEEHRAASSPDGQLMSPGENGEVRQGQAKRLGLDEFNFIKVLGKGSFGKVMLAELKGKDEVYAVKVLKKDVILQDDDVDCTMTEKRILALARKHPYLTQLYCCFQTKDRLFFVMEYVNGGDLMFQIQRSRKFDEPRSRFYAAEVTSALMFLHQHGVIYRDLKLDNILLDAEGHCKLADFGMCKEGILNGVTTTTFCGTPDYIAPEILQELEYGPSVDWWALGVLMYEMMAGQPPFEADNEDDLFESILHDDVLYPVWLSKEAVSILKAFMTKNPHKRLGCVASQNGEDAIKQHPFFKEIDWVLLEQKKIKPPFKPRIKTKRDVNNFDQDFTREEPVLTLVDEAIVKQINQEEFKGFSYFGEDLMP

[20] = molecular target: Proto-oncogene tyrosine-protein kinase Src (Homo sapiens) (UniProt P12931)
Proto-oncogene tyrosine-protein kinase Src (Homo sapiens), sequence (P12931 2-536 limits assumed): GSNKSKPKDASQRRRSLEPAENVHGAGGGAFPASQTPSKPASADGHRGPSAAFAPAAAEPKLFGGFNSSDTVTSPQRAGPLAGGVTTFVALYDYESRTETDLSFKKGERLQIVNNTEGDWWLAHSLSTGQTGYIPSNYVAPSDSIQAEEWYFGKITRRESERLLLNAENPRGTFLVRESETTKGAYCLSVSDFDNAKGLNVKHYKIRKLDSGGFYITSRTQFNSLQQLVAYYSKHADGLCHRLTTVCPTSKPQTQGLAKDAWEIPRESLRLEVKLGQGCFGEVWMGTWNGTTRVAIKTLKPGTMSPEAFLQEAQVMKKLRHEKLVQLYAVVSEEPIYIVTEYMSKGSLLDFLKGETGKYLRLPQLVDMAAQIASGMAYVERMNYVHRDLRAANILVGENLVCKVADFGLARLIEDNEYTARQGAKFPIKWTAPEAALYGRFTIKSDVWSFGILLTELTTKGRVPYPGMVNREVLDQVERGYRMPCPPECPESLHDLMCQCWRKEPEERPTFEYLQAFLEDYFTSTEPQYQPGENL

[21] = molecular target: 5-hydroxytryptamine receptor 1A (Homo sapiens) (UniProt P08908)
[22] = molecular target: Histamine H2 receptor (Homo sapiens) (UniProt P25021)
[23] = molecular target: Muscarinic acetylcholine receptor M2 (Homo sapiens) (UniProt P08172)

D(1A) dopamine receptor (Homo sapiens), sequence (P21728 whole entry): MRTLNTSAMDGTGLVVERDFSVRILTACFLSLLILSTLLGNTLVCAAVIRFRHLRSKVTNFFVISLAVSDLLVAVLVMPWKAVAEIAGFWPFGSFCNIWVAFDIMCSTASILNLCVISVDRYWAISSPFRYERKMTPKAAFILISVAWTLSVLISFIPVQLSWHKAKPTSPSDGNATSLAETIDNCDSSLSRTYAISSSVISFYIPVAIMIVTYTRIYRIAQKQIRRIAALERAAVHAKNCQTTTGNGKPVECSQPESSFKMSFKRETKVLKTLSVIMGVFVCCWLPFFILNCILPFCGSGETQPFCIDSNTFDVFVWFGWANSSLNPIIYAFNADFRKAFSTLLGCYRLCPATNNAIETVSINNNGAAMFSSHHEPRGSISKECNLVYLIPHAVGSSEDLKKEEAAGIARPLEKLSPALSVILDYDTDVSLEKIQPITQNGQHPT
Beta-1 adrenergic receptor (Homo sapiens), sequence (P08588 whole entry, looked up): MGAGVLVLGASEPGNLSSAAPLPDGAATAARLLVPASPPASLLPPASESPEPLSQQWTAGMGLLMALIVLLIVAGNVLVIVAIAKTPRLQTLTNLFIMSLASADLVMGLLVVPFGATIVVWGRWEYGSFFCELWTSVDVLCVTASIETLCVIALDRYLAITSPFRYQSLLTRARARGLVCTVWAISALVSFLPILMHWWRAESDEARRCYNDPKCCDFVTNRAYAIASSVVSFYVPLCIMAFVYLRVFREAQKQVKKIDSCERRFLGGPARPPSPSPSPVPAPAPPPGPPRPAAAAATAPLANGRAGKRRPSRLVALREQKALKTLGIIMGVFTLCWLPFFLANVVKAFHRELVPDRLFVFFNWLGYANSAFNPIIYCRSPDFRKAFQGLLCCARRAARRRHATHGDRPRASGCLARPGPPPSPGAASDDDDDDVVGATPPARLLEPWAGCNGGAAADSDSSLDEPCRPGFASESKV

## CCOC(=O)c1cc2cc(-c3cc(C(=O)NCc4ccc(C(=O)O)cc4)nn3C)ccc2[nH]1 [BI 4394]
[1]
  inhibition: -5.02%
[2]
  inhibition: 2.26%
[3]
  inhibition: 12.3%
[4]
  inhibition: -5.04%
[5]
  residual activity: 100%
[6]
  residual activity: 61%
[7]
  residual activity: 89%
[8]
  residual activity: 28%
[9]
  residual activity: 87%
[10]
  residual activity: 121%
[11]
  residual activity: 68%
[12]
  residual activity: 1%
[13]
  residual activity: 43%
[14]
  residual activity: 190%
[15]
  residual activity: 75%
[16]
  residual activity: 14%
[17]
  residual activity: 73%
[18]
  residual activity: 10%
[19]
  residual activity: 115%
[20]
  residual activity: 25%

## Cn1nc(C(=O)NCc2ccc(C(=O)O)cc2)cc1-c1ccc2[nH]ccc2c1 [BI 4395]
[21]
  inhibition: 22.7%
[22]
  inhibition: 8.57%
[23]
  inhibition: -8.35%
